Experimental data as given in patent US20200339544A1 (JOINT STOCK COMPANY "BIOCAD", priority 2017, published 2020).
Where two headings read alike, the source gives them in different places.

Columns and labels:
[1] = Chemical stability in simulated gastric fluid (SGF); format: physicochemical; conditions: SGF without enzymes, pH 1,4; 10 μm; 2 hours at 37° C.; substance amount remaining
Method: (§1) 1) Determination of chemical stability in simulated intestinal fluid, simulated gastric fluid and human blood plasma.
(§2) SGF concentrate without enzymes, pH=1,4 (Sigma Ireland, cat #01651) was used as simulated gastric fluid. Initial candidate solution (10 mM in DMSO) was diluted with a SGF working solution to a concentration of 10 μm (test solution). The test solution was incubated in a dry block thermostat for 2 hours at 37° C. SIF concentrate without enzymes, pH=6.5 (Sigma Ireland, cat #55331) was used as simulated intestinal fluid. Initial candidate solution (10 mM in DMSO) was diluted with a SIF working solution to a concentration of 10 μm (test solution). The test solution was incubated in a dry block thermostat for 2 hours at 37° C. HPLC with Agilent 1200 liquid chromatography system (Agilent, USA) was employed to determine peak areas of the compounds in test samples, said peak areas corresponding to the initial test time (prior to incubation) and the final test time (after incubation in a dry block thermostat for 2 hours at 37° C.). We used gradient elution (1 mL/min flow rate). Substance amount in % in a sample after thermostatting was determined.
(§3) The stability of the compounds was estimated.

[2] = Chemical stability in simulated intestinal fluid (SIF); format: physicochemical; conditions: SIF without enzymes, pH 6.5; 10 μm; 2 hours at 37° C.; substance amount remaining
Method: as §1, §2, §3

[3] = Chemical stability in human blood plasma; format: in vitro ADME; conditions: pooled human blood plasma; 10 μm; 4 hours at 37° C.; substance amount remaining
How it was run: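 Pooled plasma from ten healthy donors was spiked to 10 μM from a 10 mM DMSO stock and held 4 h at 37 °C. After acetonitrile protein precipitation, HPLC peak areas before and after incubation gave the percentage of compound remaining.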

WT EGFR (Wild-Type EGFR) = target: T1, WT EGFR (Wild-Type EGFR) (Homo sapiens, UniProt P00533); assay: Inhibition of WT EGFR kinase activity (ADP-Glo); format: biochemical
T1 construct: purchased SignalChem
How it was run: (§4)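 Recombinant WT or double-mutant EGFR was incubated with a solution of 0.5 mg/mL peptide substrate and 50 μM ATP for 180 minutes at 37° C. Kinase activity was detected by ADP-Glo luminescence. IC50 values came from a four-parameter logistic fit.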

[4] = target: T2, DM EGFR (DoubleMutantEGFR, L828R/T790M) (Homo sapiens, UniProt P00533, L858R/T790M); assay: Inhibition of DM EGFR kinase activity (ADP-Glo); format: biochemical; conditions: for IC50: inhibition of kinase activity, EGFR DM (L828R/T790M); for SI, IC50(WT)/IC50(DM): selectivity index, kinase EGFR WT vs EGFR DM
T2 construct: purchased SignalChem
How it was run: as §4

[5] = tested on: A549 (lung adenocarcinoma, WT); assay: Antiproliferative activity on A549 cells (Alamar Blue); format: cell-based; conditions: Homo sapiens, antiproliferative test
How it was run: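 Cells seeded at 5*10^3/well in RPMI-1640 with 2% FBS, attached 16-18 h at 37° C, then exposed to compounds (≤1% DMSO) for 72 h. Alamar Blue added for 3-5 h; fluorescence read at 540/590 nm. IC50 from four-parameter logistic fit.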

[6] = tested on: HCC827 (lung adenocarcinoma, SM, exon19delE746-A750); assay: Antiproliferative activity on HCC827 cells (Alamar Blue); format: cell-based; conditions: Homo sapiens, antiproliferative test
Method: Antiproliferative activity of EGFR inhibitors (Tables 15 and 16) was measured in cell-based bioassay on continuous epithelial cell cultures: A549 (lung adenocarcinoma, ATCC® CRM-CCL-185™—WT), HCC827 (lung adenocarcinoma, ATCC® CRL-2868™—SM (SingleMutantEGFR, exon19delE746-A750)) and H1975 (lung adenocarcinoma, ATCC® CRL-5908™—DM (DoubleMutantEGFR, L828R/T790M)) using cell viability reagent Alamar Blue (ThermoFisher, # DAL1100). Cells were cultured in 10% FBS-supplemented (Gibco, #16140071) RPMI-1640 (PanEco, S330p) for at least 1 passage after thawing, washed with PBS and passaged in 96-well culture plates (3599, Corning) with RPMI-1640 growth medium supplemented with 2% FBS in an amount of 5*10^3 cells/well for A549, 10*10^3 cells/well for HCC827 and 15*10^3 cells/well for H1975 in 100 μL, and incubated at 37° C. in an incubator (Thermo Forma, USA) under 5% of CO2 for 16-18 h for cell attachment.
The test compounds were dissolved in DMSO in the selected range of concentrations and transferred to RPMI-1640 medium (PanEco, S330p) supplemented with 2% FBS. After adding 50 μl of the prepared dilutions to the cells, the incubation mixture contained the final concentrations of the test substances and no more than 1% DMSO. The plates were Incubated at 37° C. for 72 h. After incubation, 15 μl of Alamar Blue vital dye (ThermoFisher, # DAL1100) was added to each well. The plates were shaken on an orbital shaker (Biosan, Latvia) and further incubated for 3-5 h in a CO2 incubator (Thermo Forma, USA). Number of living cells was estimated using a plate spectrophotometer Infinite M200Pro, (Tecan, Switzerland) measuring fluorescent signal at the excitation wavelength (λEx) of 540 nm and emission wavelength (λEm) of 590 nm.
IC50 was calculated using Magellan 7.2 software (Tecan, Switzerland) approximating experimental points by four-parameter logistic model with the optimization by Levenberg-Marquardt.

[7] = tested on: H1975 (lung adenocarcinoma, DM, L828R/T790M); assay: Antiproliferative activity on H1975 cells (Alamar Blue); format: cell-based; conditions: for IC50: Homo sapiens, NCI-H1975, H1975 cells; for SI IC50(A549)/IC50(DM): selectivity index, A549 vs H1975 cells
How it was run: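 H1975 cells (15*10^3/well) attached 16-18 h in RPMI-1640 with 2% FBS, then exposed to compounds (≤1% DMSO final) for 72 h at 37 °C. Viability by Alamar Blue fluorescence (Ex 540/Em 590 nm) after 3-5 h; IC50 from four-parameter logistic fit.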

[8] = General cytotoxicity on HepG2 cells; format: cell-based; conditions: human; general cytotoxicity, HepG2 cells, 72 hours, average of several tests
How it was run: (§5)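 HepG2 cells seeded at 2*10^4 cells per well and compounds added in DMEM with 2% FBS for 72 h at 37 °C. Viability read with Alamar Blue and CC50 derived as for IC50. Therapeutic index taken as HepG2 CC50 over H1975 IC50.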

HepG2 cells = assay: General cytotoxicity on HepG2 cells; format: cell-based; conditions: therapeutic index, CC50 HepG2 / IC50 H1975
How it was run: as §5

[9] = Enzyme stability in human liver S9 fractions; format: in vitro ADME; conditions: 0.5 mg/mL pooled human liver S9 fractions; 10 μM compound; 37° C.; pH 7.4; read-out: Stability in liver S9 fractions, Clint
How it was run: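 Compound at 10 μM was incubated at 37 °C with 0.5 mg/mL pooled human liver S9, 2 mM β-NAD and 4 mM MgCl2 in 0.1 M sodium phosphate, pH 7.4, then quenched with acetonitrile and analysed chromatographically. T½ and CLint were derived from the slope of log peak area versus time.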

[10] = average values obtained in several tests, Table 16, read-out: H1975 (DM) IC50
[11] = antiproliferative test, Table 15, read-out: IC50 H1975 (DM)

| Compound | Stability in SGF, % [1] [%] | Stability in SIF, % [2] [%] | Stability in blood plasma, % [3] [%] | IC50 (WT EGFR (Wild-Type EGFR)) [nM] | IC50 [4] [nM] | SI, IC50(WT)/IC50(DM) [4] | IC50 [5] [nM] | IC50 [6] [nM] | IC50 [7, 10] [nM] | IC50 [7, 11] [nM] | Intrinsic clearance in human liver S9 fractions at 10 µM [9] [µL/min/mg] | SI IC50(A549)/IC50(DM) [7] | CC50 at 72 h [8] [nM] | TI, CC50/IC50 (HepG2 cells) |
| --- | --- | --- | --- | --- | --- | --- | --- | --- | --- | --- | --- | --- | --- | --- |
| C=CC(=O)Nc1cc(Nc2nccc(C(=O)c3ccc(Br)cc3)n2)c(OC)cc1N(C)CCN(C)C [EGFR_3365_13, N-(5-((4-(4-bromobenzoyl)pyrimidin-2-yl)amino)-2-((2-(dimethylamino)ethyl) (methyl)amino)-4-methoxyphenyl)acrylamide] | 98.9 | 100.0 | 82.4 | 113 | 18.1 | 6.22 | 4480 | 10.3 | 30.8 | 30.8 |  | 145.63 | 14100 | 460 |
| C=CC(=O)Nc1cc(Nc2nccc(C(=O)c3ccc(OCC(C)C)cc3)n2)c(OC)cc1N(C)CCN(C)C [EGFR_3365_78, N-(2-((2-(dimethylamino)ethyl)(methyl)amino)-5-((4-(4-isobutoxybenzoyl)pyrimidin-2-yl)amino)-4-methoxyphenyl) acrylamide] | 91.1 | 91.1 | 81.7 |  |  |  |  |  |  |  |  |  |  |  |
| C=CC(=O)Nc1cc(Nc2cc(C(=O)c3ccc(N4CCOCC4)cc3)ccn2)c(OC)cc1N(C)CCN(C)C.O=C(O)C(F)(F)F [EGFR_3365_5, N-(2-((2-(dimethylamino)ethyl)(methyl)amino)-4-methoxy-5-((4-(4-morpholinobenzoyl)pyridin-2-yl)amino)phenyl)acrylamide 2,2,2-trifluoroacetate] | 100.0 | 89.8 |  | 464 | 22 | 21.03 | 7590 | 28.6 | 57.3 | 57.3 |  | 132.56 | 17700 | 309 |
| C=CC(=O)Nc1cc(Nc2nccc(C(=O)c3cccc(F)c3)n2)c(OC)cc1N(C)CCN(C)C [EGFR_3365_11, N-(2-((2-(dimethylamino)ethyl)(methyl)amino)-5-((4-(3-fluorobenzoyl)pyrimidin-2-yl)amino)-4-methoxyphenyl) acrylamide] | 100.0 | 100.0 | 85.4 | 170 | 6.44 | 26.43 | 12400 | 6.2 | 351 | 351 |  | 35.37 | 15000 | 43 |

Second part, led by results:

| Stability in SGF, % [1] [%] | Stability in SIF, % [2] [%] | Stability in blood plasma, % [3] [%] | IC50 (WT EGFR (Wild-Type EGFR)) [nM] | IC50 [4] [nM] | SI, IC50(WT)/IC50(DM) [4] | IC50 [5] [nM] | IC50 [6] [nM] | IC50 [7, 10] [nM] | IC50 [7, 11] [nM] | Intrinsic clearance in human liver S9 fractions at 10 µM [9] [µL/min/mg] | Compound | SI IC50(A549)/IC50(DM) [7] | CC50 at 72 h [8] [nM] | TI, CC50/IC50 (HepG2 cells) |
| --- | --- | --- | --- | --- | --- | --- | --- | --- | --- | --- | --- | --- | --- | --- |
| 100.0 | 100.0 | 98.5 | 360 | 18.9 | 19.05 | 73900 |  | 184 | 184 |  | C=CC(=O)Nc1cc(Nc2nccc(C(=O)c3ccccc3[N+](=O)[O-])n2)c(OC)cc1N(C)CCN(C)C [EGFR_3365_36, N-(2-((2-(dimethylamino)ethyl)(methyl)amino)-4-methoxy-5-((4-(2-nitrobenzoyl)pyrimidin-2-yl)amino)phenyl)acrylamide] | 402.37 | 36500 | 199 |
| 100.0 | 96.6 |  | 49.7 | 6.24 | 7.96 | 8640 | 5.64 | 69.4 | 69.4 |  | C=CC(=O)Nc1cc(Nc2cc(C(=O)c3ccc(C)cc3)ccn2)c(OC)cc1N(C)CCN(C)C [EGFR_3365_57, N-(2-((2-(dimethylamino)ethyl)(methyl)amino)-4-methoxy-5-((4-(4-methylbenzoyl)pyridin-2-yl)amino)phenyl)acrylamide] | 124 | 22800 | 328 |
| 100.0 | 100.0 | 87.2 |  |  |  |  |  |  |  | 16.6 | C=CC(=O)Nc1cc(Nc2nccc(C(=O)c3ccc(C)cc3)n2)c(OC)cc1N(C)CCN(C)C [EGFR_3365_64, N-(2-((2-(dimethylamino)ethyl)(methyl)amino)-4-methoxy-5-((4-(4-methylbenzoyl)pyrimidin-2-yl)amino)phenyl)acrylamide] |  |  |  |
| 100.0 | 100.0 | 100.0 |  |  |  |  |  |  |  |  | C=CC(=O)Nc1cc(Nc2nccc(C(=O)c3ccc(OC(C)C)cc3OC(C)C)n2)c(OC)cc1N(C)CCN(C)C [EGFR_3365_71, N-(5-((4-(2,4-diisopropoxybenzoyl)pyrimidin-2-yl)amino)-2-((2-(dimethylamino)ethyl)(methyl)amino)-4-methoxyphenyl)acrylamide] |  |  |  |
| 99.7 | 99.4 | 100.0 |  |  |  |  |  |  |  |  | C=CC(=O)Nc1cc(Nc2nccc(C(=O)c3ccc(-n4ccnc4)cc3)n2)c(OC)cc1N(C)CCN(C)C [EGFR_3365_86, N-(5-((4-(4-(1H-imidazol-1-yl)benzoyl)pyrimidin-2-yl)amino)-2-((2-(dimethylamino)ethyl) (methyl)amino)-4-methoxyphenyl)acrylamide] |  |  |  |
